Measurements from patent publication US12545639B2, “3-substituted phenylamidine compounds, preparation and use thereof” (PI INDUSTRIES LTD., priority 2019, dated 2026).

What was measured:
Pyricularia oryzae = assay: microbe, parasite or virus in culture; assay type: cell-based; settings: 168 h, read-out: control compared to the untreated check (radial growth)
Colletotrichum capsici = Colletotrichum capsici (anthracnose) in vitro test, radial growth on potato dextrose agar; assay type: cell-based; settings: Colletotrichum truncatum, 168 h; 300 ppm in potato dextrose agar; 25° C., 60% relative humidity, seven days; read-out: control compared to the untreated check (radial growth)
Botrytis cinerea = Botrytis cinerea (gray mold) in vitro test, radial growth on potato dextrose agar; assay type: cell-based; settings: 168 h, 300 ppm in potato dextrose agar, 22° C., 90% relative humidity, seven days, read-out: control compared to the untreated check (radial growth)
Rhizoctonia solani = Rhizoctonia solani (rice sheath blight/potato black scurf) in vitro test, radial growth on potato dextrose agar; assay type: cell-based; settings: 168 h, 300 ppm in potato dextrose agar, 25° C., 60% relative humidity, seven days, read-out: control compared to the untreated check (radial growth)
Alternaria solani = Alternaria solani (early blight of tomato/potato) in vitro test, radial growth on potato dextrose agar; assay type: cell-based; settings: 168 h, 300 ppm in potato dextrose agar, 25° C., 60% relative humidity, seven days, read-out: control compared to the untreated check (radial growth)
[1] = test system: Septoria lycopersici/Corynespora cassicola (CORYCA); assay: Septoria lycopersici/Corynespora cassicola (CORYCA) (leaf spot of tomato) in vitro test, radial growth on potato dextrose agar; assay type: cell-based; settings: 168 h, 300 ppm in potato dextrose agar, 25° C., 70% relative humidity, seven days, read-out: control compared to the untreated check (radial growth)
Phakopsora pachyrhizi = Phakopsora pachyrhizi test in soybean, preventive, in vivo on plants; settings: in Glycine max, read-out: Efficacy (% control), disease severity compared to the untreated check

CCN(C)C=Nc1cc(C)cc(Cc2ccc(Br)cc2F)c1Cl [Compound 217, N′-(3-(4-bromo-2-fluorobenzyl)-2-chloro-5-methylphenyl)-N-ethyl-N-methylformimidamide]
≥ 70%: inhibition of growth at 300 ppm (Pyricularia oryzae) | inhibition of growth at 300 ppm (Colletotrichum capsici) | inhibition of growth at 300 ppm (Botrytis cinerea) | inhibition of growth at 300 ppm (Rhizoctonia solani) | inhibition of growth at 300 ppm (Alternaria solani) | inhibition of growth at 300 ppm [1] | pest or weed control at 500 ppm (Phakopsora pachyrhizi)

CCN(C)C=Nc1cc(F)cc(Nc2ccc(SC(F)(F)F)cc2)c1C [Compound 16, N-ethyl-N′-(5-fluoro-2-methyl-3-((4-((trifluoromethyl)thio)phenyl)amino)phenyl)-N-methylformimidamide]
≥ 70%: inhibition of growth at 300 ppm (Pyricularia oryzae) | inhibition of growth at 300 ppm (Colletotrichum capsici) | inhibition of growth at 300 ppm (Botrytis cinerea) | inhibition of growth at 300 ppm (Rhizoctonia solani) | inhibition of growth at 300 ppm (Alternaria solani) | inhibition of growth at 300 ppm [1] | pest or weed control at 500 ppm (Phakopsora pachyrhizi)

CCN(C)C=Nc1cc(F)cc(N(C)c2cccc(C)c2)c1C [Compound 38, N-ethyl-N′-(5-fluoro-2-methyl-3-(methyl(m-tolyl)amino)phenyl)-N-methylformimidamide]
≥ 70%: inhibition of growth at 300 ppm (Pyricularia oryzae) | inhibition of growth at 300 ppm (Colletotrichum capsici) | inhibition of growth at 300 ppm (Botrytis cinerea) | inhibition of growth at 300 ppm (Rhizoctonia solani) | inhibition of growth at 300 ppm (Alternaria solani) | inhibition of growth at 300 ppm [1] | pest or weed control at 500 ppm (Phakopsora pachyrhizi)

CCN(C)C=Nc1cc(Cl)cc(Cc2ccc(F)c(C)c2)c1C [Compound 128, N′-(5-chloro-3-(4-fluoro-3-methylbenzyl)-2-methylphenyl)-N-ethyl-N-methylformimidamide]
≥ 70%: inhibition of growth at 300 ppm (Pyricularia oryzae) | inhibition of growth at 300 ppm (Colletotrichum capsici) | inhibition of growth at 300 ppm (Botrytis cinerea) | inhibition of growth at 300 ppm (Rhizoctonia solani) | inhibition of growth at 300 ppm (Alternaria solani) | inhibition of growth at 300 ppm [1] | pest or weed control at 500 ppm (Phakopsora pachyrhizi)

CCN(C)C=Nc1cc(F)cc(Cc2cccc(Cl)c2)c1C [Compound 144, N′-(3-(3-chlorobenzyl)-5-fluoro-2-methylphenyl)-N-ethyl-N-methylformimidamide]
≥ 70%: inhibition of growth at 300 ppm (Pyricularia oryzae) | inhibition of growth at 300 ppm (Colletotrichum capsici) | inhibition of growth at 300 ppm (Botrytis cinerea) | inhibition of growth at 300 ppm (Rhizoctonia solani) | inhibition of growth at 300 ppm (Alternaria solani) | inhibition of growth at 300 ppm [1] | pest or weed control at 500 ppm (Phakopsora pachyrhizi)

CCN(C)C=Nc1cc(C)cc(Cc2ccccc2F)c1Cl [Compound 14, N′-(2-chloro-3-(2-fluorobenzyl)-5-methylphenyl)-N-ethyl-N-methylformimidamide]
≥ 70%: inhibition of growth at 300 ppm (Pyricularia oryzae) | inhibition of growth at 300 ppm (Colletotrichum capsici) | inhibition of growth at 300 ppm (Botrytis cinerea) | inhibition of growth at 300 ppm (Rhizoctonia solani) | inhibition of growth at 300 ppm (Alternaria solani) | inhibition of growth at 300 ppm [1] | pest or weed control at 500 ppm (Phakopsora pachyrhizi)

CCN(C)C=Nc1cc(C)cc(Cc2ccc(Br)c(C)c2)c1Cl [Compound 216, N′-(3-(4-bromo-3-methylbenzyl)-2-chloro-5-methylphenyl)-N-ethyl-N-methylformimidamide]
≥ 70%: inhibition of growth at 300 ppm (Pyricularia oryzae) | inhibition of growth at 300 ppm (Colletotrichum capsici) | inhibition of growth at 300 ppm (Botrytis cinerea) | inhibition of growth at 300 ppm (Rhizoctonia solani) | inhibition of growth at 300 ppm (Alternaria solani) | inhibition of growth at 300 ppm [1] | pest or weed control at 500 ppm (Phakopsora pachyrhizi)

CCN(C)C=Nc1cc(Cl)cc(Cc2ccccc2)c1C [Compound 79, N′-(3-benzyl-5-chloro-2-methylphenyl)-N-ethyl-N-methylformimidamide]
≥ 70%: inhibition of growth at 300 ppm (Pyricularia oryzae) | inhibition of growth at 300 ppm (Colletotrichum capsici) | inhibition of growth at 300 ppm (Botrytis cinerea) | inhibition of growth at 300 ppm (Rhizoctonia solani) | inhibition of growth at 300 ppm (Alternaria solani) | inhibition of growth at 300 ppm [1] | pest or weed control at 500 ppm (Phakopsora pachyrhizi)

CCN(C)C=Nc1cc(F)cc(Cc2ccc(F)c(C)c2)c1C [Compound 203, N-ethyl-N′-(5-fluoro-3-(4-fluoro-3-methylbenzyl)-2-methylphenyl)-N-methylformimidamide]
≥ 70%: inhibition of growth at 300 ppm (Pyricularia oryzae) | inhibition of growth at 300 ppm (Colletotrichum capsici) | inhibition of growth at 300 ppm (Botrytis cinerea) | inhibition of growth at 300 ppm (Rhizoctonia solani) | inhibition of growth at 300 ppm (Alternaria solani) | inhibition of growth at 300 ppm [1] | pest or weed control at 500 ppm (Phakopsora pachyrhizi)

CCN(C)C=Nc1cc(Cl)cc(Cc2ccccc2F)c1C [Compound 103, N′-(5-chloro-3-(2-fluorobenzyl)-2-methylphenyl)-N-ethyl-N-methylformimidamide]
≥ 70%: inhibition of growth at 300 ppm (Pyricularia oryzae) | inhibition of growth at 300 ppm (Colletotrichum capsici) | inhibition of growth at 300 ppm (Botrytis cinerea) | inhibition of growth at 300 ppm (Rhizoctonia solani) | inhibition of growth at 300 ppm (Alternaria solani) | inhibition of growth at 300 ppm [1] | pest or weed control at 500 ppm (Phakopsora pachyrhizi)

CCN(C)C=Nc1cc(F)cc(Nc2cc(Cl)cc(C(F)(F)F)c2)c1C [Compound 161, N′-(3-((3-chloro-5-(trifluoromethyl)phenyl)amino)-5-fluoro-2-methylphenyl)-N-ethyl-N-methylformimidamide]
≥ 70%: inhibition of growth at 300 ppm (Pyricularia oryzae) | inhibition of growth at 300 ppm (Colletotrichum capsici) | inhibition of growth at 300 ppm (Botrytis cinerea) | inhibition of growth at 300 ppm (Rhizoctonia solani) | inhibition of growth at 300 ppm (Alternaria solani) | inhibition of growth at 300 ppm [1] | pest or weed control at 500 ppm (Phakopsora pachyrhizi)

CCN(C)C=Nc1cc(C)cc(Nc2cccc(C)c2F)c1Cl [Compound 123, N′-(2-chloro-3-((2-fluoro-3-methylphenyl)amino)-5-methylphenyl)-N-ethyl-N-methylformimidamide]
≥ 70%: inhibition of growth at 300 ppm (Pyricularia oryzae) | inhibition of growth at 300 ppm (Colletotrichum capsici) | inhibition of growth at 300 ppm (Botrytis cinerea) | inhibition of growth at 300 ppm (Alternaria solani) | inhibition of growth at 300 ppm [1] | pest or weed control at 500 ppm (Phakopsora pachyrhizi)

CCN(C)C=Nc1cc(C)cc(Nc2cc(Cl)ccc2C)c1Cl [Compound 100, N′-(2-chloro-3-((5-chloro-2-methylphenyl)amino)-5-methylphenyl)-N-ethyl-N-methylformimidamide]
≥ 70%: inhibition of growth at 300 ppm (Pyricularia oryzae) | inhibition of growth at 300 ppm (Colletotrichum capsici) | inhibition of growth at 300 ppm (Botrytis cinerea) | inhibition of growth at 300 ppm (Rhizoctonia solani) | inhibition of growth at 300 ppm (Alternaria solani) | inhibition of growth at 300 ppm [1] | pest or weed control at 500 ppm (Phakopsora pachyrhizi)

CCN(C)C=Nc1cc(C)cc(Nc2cccc(C(C)C)c2)c1Cl [Compound 58, N′-(2-chloro-3-((3-isopropylphenyl)amino)-5-methylphenyl)-N-ethyl-N-methylformimidamide]
≥ 70%: inhibition of growth at 300 ppm (Pyricularia oryzae) | inhibition of growth at 300 ppm (Colletotrichum capsici) | inhibition of growth at 300 ppm (Botrytis cinerea) | inhibition of growth at 300 ppm (Rhizoctonia solani) | inhibition of growth at 300 ppm (Alternaria solani) | inhibition of growth at 300 ppm [1] | pest or weed control at 500 ppm (Phakopsora pachyrhizi)

CCN(C)C=Nc1cc(F)cc(Cc2cc(C)cc(F)c2)c1C [Compound 235, N-ethyl-N′-(5-fluoro-3-(3-fluoro-5-methylbenzyl)-2-methylphenyl)-N-methylformimidamide]
≥ 70%: inhibition of growth at 300 ppm (Pyricularia oryzae) | inhibition of growth at 300 ppm (Colletotrichum capsici) | inhibition of growth at 300 ppm (Botrytis cinerea) | inhibition of growth at 300 ppm (Rhizoctonia solani) | inhibition of growth at 300 ppm (Alternaria solani) | inhibition of growth at 300 ppm [1] | pest or weed control at 500 ppm (Phakopsora pachyrhizi)

CCN(C)C=Nc1cc(Cl)cc(Cc2ccccc2Cl)c1C [Compound 89, N′-(5-chloro-3-(2-chlorobenzyl)-2-methylphenyl)-N-ethyl-N-methylformimidamide]
≥ 70%: inhibition of growth at 300 ppm (Pyricularia oryzae) | inhibition of growth at 300 ppm (Colletotrichum capsici) | inhibition of growth at 300 ppm (Botrytis cinerea) | inhibition of growth at 300 ppm (Rhizoctonia solani) | inhibition of growth at 300 ppm (Alternaria solani) | inhibition of growth at 300 ppm [1] | pest or weed control at 500 ppm (Phakopsora pachyrhizi)

CCN(C)C=Nc1cc(F)cc(Cc2ccccc2C(F)(F)F)c1C [Compound 143, N-ethyl-N′-(5-fluoro-2-methyl-3-(2-(trifluoromethyl)benzyl)phenyl)-N-methylformimidamide]
≥ 70%: inhibition of growth at 300 ppm (Pyricularia oryzae) | inhibition of growth at 300 ppm (Colletotrichum capsici) | inhibition of growth at 300 ppm (Botrytis cinerea) | inhibition of growth at 300 ppm (Rhizoctonia solani) | inhibition of growth at 300 ppm (Alternaria solani) | inhibition of growth at 300 ppm [1] | pest or weed control at 500 ppm (Phakopsora pachyrhizi)

CCN(C)C=Nc1cc(F)cc(Cc2cccc(C(F)(F)F)c2)c1C [Compound 201, N-ethyl-N′-(5-fluoro-2-methyl-3-(3-(trifluoromethyl)benzyl)phenyl)-N-methylformimidamide]
≥ 70%: inhibition of growth at 300 ppm (Pyricularia oryzae) | inhibition of growth at 300 ppm (Colletotrichum capsici) | inhibition of growth at 300 ppm (Botrytis cinerea) | inhibition of growth at 300 ppm (Rhizoctonia solani) | inhibition of growth at 300 ppm (Alternaria solani) | inhibition of growth at 300 ppm [1] | pest or weed control at 500 ppm (Phakopsora pachyrhizi)

CCN(C)C=Nc1cc(F)cc(Nc2cccc(C)c2)c1C [Compound 31, N-ethyl-N′-(5-fluoro-2-methyl-3-(m-tolylamino)phenyl)-N-methylformimidamide]
≥ 70%: inhibition of growth at 300 ppm (Pyricularia oryzae) | inhibition of growth at 300 ppm (Colletotrichum capsici) | inhibition of growth at 300 ppm (Botrytis cinerea) | inhibition of growth at 300 ppm (Rhizoctonia solani) | inhibition of growth at 300 ppm (Alternaria solani) | inhibition of growth at 300 ppm [1] | pest or weed control at 500 ppm (Phakopsora pachyrhizi)

CCN(C)C=Nc1cc(C)cc(Nc2c(C)cccc2F)c1Cl [Compound 133, N′-(2-chloro-3-((2-fluoro-6-methylphenyl)amino)-5-methylphenyl)-N-ethyl-N-methylformimidamide]
≥ 70%: inhibition of growth at 300 ppm (Pyricularia oryzae) | inhibition of growth at 300 ppm (Colletotrichum capsici) | inhibition of growth at 300 ppm (Botrytis cinerea) | inhibition of growth at 300 ppm (Rhizoctonia solani) | inhibition of growth at 300 ppm (Alternaria solani) | inhibition of growth at 300 ppm [1] | pest or weed control at 500 ppm (Phakopsora pachyrhizi)
